Values of other authors in patent publication US6774131B1, “Remedies for endothelin-induced diseases” (Yamanouchi Pharmaceutical Co., Ltd., priority 2000, dated 2004).

Legend:
[1] = 20 mg; 6th International Conference on Endothelin, Abstract No. 219; cited from earlier work
prostate cancer patients = settings: reported, Proceeding of ASCO,19,1314,2000; cited from earlier work

For `CCCCN(CCCC)C(=O)CN1C[C@H](c2ccc3c(c2)OCO3)[C@@H](C(=O)O)[C@@H]1c1ccc(OC)cc1` [ABT-627, 1-(N,N-dibutylcarbamoylmethyl)-2(R)-(4-methoxyphenyl)-4(S)-(3,4-methylenedioxyphenyl)pyrrolidine-3(R)-carboxylic acid], the AUC [1] is listed as 802 ng·h/mL, the Cmax [1] is listed as 93.5 ng/mL and the T max [1] is listed as 0.6 h. For the same compound, the “T ½” value [1] was 28.4 h and the minimum effective dose (prostate cancer patients) was 10 mg.
